Test results as given in US11208404B2 (PERENNA PHARMACEUTICALS, INC., priority 2017, dated 2021).
“And” between values parts separate entries of the source, which are not always exact repeats. Equal entries are not always repeated. Where two headings read alike, the source gives them in different places.

Biological target: ALCAT1 (Homo sapiens (Human), UniProt Q6UWP7)
Assay: In vitro acyltransferase assay for ALCAT1 inhibitors
Format: biochemical
Conditions: for % inh @ 1 μM / inhibition at 1 µM: 1 μM compound; for IC50: ALCAT1 enzyme activity
From the text: The human ALCAT1 protein were expressed in Spodoptera frugiperda (Sf9) insect cells by using a Bac-to-Bac baculovirus expression system (Invitrogen) according to the manufacturer's instruction. High-titer recombinant baculovirus expressing the human ALCAT1 protein was generated by several rounds of viral amplification. The Sf9 cells were typically infected with recombinant baculovirus for 3 days, harvested in ice-cold phosphate-buffered saline (PBS), and homogenized in 20 mm NaCl by going through French press. The total cell lysates were centrifuged at 10,000×g for 1 hours at 4° C. to eliminate the nucleus fraction, followed by ultracentrifugation at 100,000×g to pallet the membrane fraction. The membrane fraction was resuspended in enzymatic buffer that contain 10% glycerol, quantified for protein concentration, aliquoted, and stored at −80° C.
ALCAT1 enzymatic activity was determined by measuring the conversion of monolysocardiolipin (MLCL) to cardiolipin or lysophosphatidylglycerol (LPG) to phosphatidylglycerol (PG) in an enzymatic reaction mixture that contained 50 mm Tris/HCl, pH 7.0, 100 μm lysophospholipids, 25 μm [^14C]acyl-CoA (50 mCi/mmol, American Radiolabeled Chemicals, Inc), and membrane fraction (0.5-2.5 μg) in a total volume of 200 μl. The reaction was incubated at room temperature for 30 min. The lipids were extracted will chloroform, dried, and separated by thin layer chromatography (TLC) with chloroform:hexane:methanol:acetic acid (50:30:10:5, v/v) or chloroform:methanol:water (65:25:4, v/v). After separation, TLC plates were exposed to a Phosphorlmager screen to visualize the radiolabeled products with a Molecular Dynamics Typhoon Scanner (Sunnyvale, Calif.). In some experiments, NBD-CoA was used at 100 μM to replace the [^14C]acyl-CoA in the enzymatic reaction. All quantitative data were expressed as mean±S.E. Statistical analyses for differences between two groups were carried out using a Student's t test.
Compound inhibitors for ALCAT1 enzyme were analyzed by an in vitro enzymatic assay as detailed above. Compound inhibitors were added to the enzymatic mixture at 1-20 μM concentrations before the start of the acyltransferase reaction.
Where multiple measurements were taken this is indicated by a “/” between multiple values.
IC50 values for each compound were analyzed in triplicates, and calculated by GraphPad software.

[1] = 10 μM compound, in vitro enzymatic assay
[2] = triplicates, GraphPad, read-out: IC50

ALCAT1, sequence (Q6UWP7 whole entry): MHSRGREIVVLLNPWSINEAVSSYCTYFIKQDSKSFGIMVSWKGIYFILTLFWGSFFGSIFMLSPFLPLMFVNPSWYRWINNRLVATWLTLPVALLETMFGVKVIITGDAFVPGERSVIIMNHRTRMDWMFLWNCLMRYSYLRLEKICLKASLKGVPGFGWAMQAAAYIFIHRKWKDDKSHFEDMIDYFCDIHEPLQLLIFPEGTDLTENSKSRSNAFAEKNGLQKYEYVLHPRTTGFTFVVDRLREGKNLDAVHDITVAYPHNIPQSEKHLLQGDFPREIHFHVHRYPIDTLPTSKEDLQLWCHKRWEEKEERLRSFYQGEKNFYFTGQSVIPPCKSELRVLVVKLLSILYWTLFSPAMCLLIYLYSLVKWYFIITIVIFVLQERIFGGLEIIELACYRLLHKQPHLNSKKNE

% inh @ 1 μM (in vitro enzymatic assay)	inhibition at 1 µM (in vitro enzymatic assay) [%]	inhibition at 10 µM [1] [%]	IC50 [2] [µM]	SMILES	other results
		75	2.8	Cc1cccc(C(=O)Nc2cccc(-c3nnc(-c4ccco4)o3)c2)c1 [Compound 57]	% inh @ 10 μM [1]: 89% and 94%
	90	100	0.087	CCCOc1ccc(Cl)cc1C(=O)Nc1cccc(-c2nnc(-c3ccco3)o2)c1 [Compound 123, 5-Chloro-N-(3-(5-(furan-2-yl)-1,3,4-oxadiazol-2-yl)phenyl)-2-propoxybenzamide]	
	66			O=C(Nc1cccc(-c2nnc(-c3ccco3)o2)c1)c1cc([N+](=O)[O-])ccc1F [Compound 336]	
68%	69			CC(C)COc1ccccc1C(=O)Nc1cccc(-c2nnc(-c3ccco3)o2)c1 [Compound 217]	
	82	100	0.33	O=C(Nc1cccc(-c2nnc(-c3ccco3)o2)c1)c1cccc(Br)c1F [Compound 191]	
90%	94		0.15	O=C(Nc1cccc(-c2nnc(-c3ccco3)o2)c1)c1ccccc1OCC(F)(F)F [Compound 223]	
	80	100	0.29	Cc1cccc(C(=O)Nc2cccc(-c3nnc(-c4ccco4)o3)c2)c1F [Compound 190]	
	92	100	0.32	O=C(Nc1cccc(-c2nnc(-c3ccco3)o2)c1)c1cc(Cl)ccc1F [Compound 189]	
	57	62		CC(C)Oc1ccc(Cl)cc1C(=O)Nc1cccc(-c2nnc(-c3ccco3)o2)c1 [Compound 478]	
100%	94		0.12	CCc1ccc(OC)c(C(=O)Nc2cccc(-c3nnc(-c4ccco4)o3)c2)c1 [Compound 280]	
99%	98		0.2	O=C(Nc1cccc(-c2nnc(-c3ccco3)o2)c1)c1ccccc1OCC(F)F [Compound 275]	
		39	4.1	O=C(Nc1cccc(-c2nnc(-c3ccco3)o2)c1)c1ccccc1Br [Compound 5]	
87%	86		0.19	CCCOc1ccc(C)cc1C(=O)Nc1cccc(-c2nnc(-c3ccco3)o2)c1 [Compound 207]	
		45	2.4	COc1cccc(C(=O)Nc2cccc(-c3nnc(-c4ccco4)o3)c2)c1 [Compound 58]	
64%	56			CCCCOc1ccccc1C(=O)Nc1cc(-c2nnc(-c3ccco3)o2)ccc1F [Compound 213]	

Further lines, the compound ahead of its results:

SMILES	% inh @ 1 μM (in vitro enzymatic assay)	inhibition at 1 µM (in vitro enzymatic assay) [%]	inhibition at 10 µM [1] [%]	IC50 [2] [µM]	other results
O=C(Nc1cncc(-c2nnc(-c3ccco3)o2)c1)c1ccccc1F [Compound 51]	57%	43			
O=C(Nc1cc(-c2nnc(-c3ccco3)o2)ccc1F)c1cc(Cl)ccc1Cl [Compound 347]		94			
CC(C)c1cccc(C(=O)Nc2cccc(-c3nnc(-c4ccco4)o3)c2)c1 [Compound 277]	23/23%	23			
O=C(Nc1cc(-c2nnc(-c3ccco3)o2)ccc1F)c1ccc2c(c1)COC2 [Compound 331]		12			
O=C(Nc1cccc(-c2nnc(-c3ccco3)o2)c1)c1cccnc1 [Compound 235]		12			
COc1ccccc1C(=O)Nc1cc(-c2nnc(-c3ccco3)o2)ccc1F [Compound 128, N-(2-Fluoro-5-(5-(furan-2-yl)-1,3,4-oxadiazol-2-yl)phenyl)-2-methoxybenzamide]		100	100	0.029	IC50 (read-out: IC50 values (upper bounds)): < 0.1 µM
O=C(Nc1ccnc(-c2nnc(-c3ccco3)o2)c1)c1ccccc1F [Compound 52]		59		0.75	
COc1ccc(C(=O)Nc2cc(-c3nnc(-c4ccco4)o3)ccc2F)cc1[N+](=O)[O-] [Compound 333]		18			
O=C(Nc1cccc(-c2cnc(-c3ccco3)o2)c1)c1ccccc1F [Compound 40]				1.7	
O=C(Nc1ccc(Cl)c(-c2nnc(-c3ccco3)o2)c1)c1ccccc1F [Compound 24]			2		
O=C(Nc1cc(-c2nnc(-c3cncs3)o2)ccc1F)c1ccccc1F [Compound 290, 2-fluoro-N-(2-fluoro-5-(5-(thiazol-5-yl)-1,3,4-oxadiazol-2-yl)phenyl)benzamide]	31%	24			
O=C(Nc1cc(-c2ncc(-c3ccco3)o2)ccc1F)c1cccnc1F [Compound 288]	59%	48			
COC(=O)c1ccccc1C(=O)Nc1cccc(-c2nnc(-c3ccco3)o2)c1 [Compound 75]		16	36		
O=C(Nc1cccc(-c2nnc(-c3ccco3)o2)c1)c1ccc2occc2c1 [Compound 212]		26			
Cc1ccc(F)c(NC(=O)c2cccc(-c3nnc(-c4ccco4)o3)c2)c1 [Compound 271]	84%	83		0.78	
O=C(Nc1cccc(-c2nnc(-c3ccco3)o2)c1)c1c(F)ccc([N+](=O)[O-])c1F [Compound 344]		33			
O=C(Nc1cccc(-c2nnc(-c3ccco3)o2)c1)c1ccco1 [Compound 100]		3	7		
O=C(Nc1cc(-c2nnc(-c3ccco3)o2)ccn1)c1ccccc1F [Compound 39, 2-Fluoro-N-(4-(5-(furan-2-yl)-1,3,4-oxadiazol-2-yl)pyridin-2-yl)benzamide]		92		0.093	
N#Cc1ccc(C(=O)Nc2cccc(-c3nnc(-c4ccco4)o3)c2)cc1 [Compound 36]			1		
O=C(Nc1cccc(-c2nnc(-c3ccco3)o2)c1)c1ccccc1C(F)F [Compound 9]		47	87		
O=C(Nc1cccc(-c2nnc(C3CCCO3)o2)c1)c1ccccc1F (stereo not drawn) [Compound 22, 2-fluoro-N-(3-(5-(tetrahydrofuran-2-yl)-1,3,4-oxadiazol-2-yl)phenyl)benzamide]		20	8		
COc1cc(C(=O)Nc2cccc(-c3nnc(-c4ccco4)o3)c2)cc([N+](=O)[O-])c1 [Compound 342]		41			
O=C(Nc1cc(Cl)ccc1F)c1cccc(-c2nnc(-c3ccco3)o2)c1 [Compound 229]	97/97%	97		0.17	
O=C(Nc1cccc(-c2nnc(-c3ccco3)o2)c1)c1cccc(-c2ccccc2)c1 [Compound 238]	23/23%	23			
O=C(Nc1cccc(-c2nnc(-c3ccc(Br)o3)o2)c1)c1ccccc1F [Compound 18]			2		
O=C(Nc1cc(F)cc(-c2nnc(-c3ccco3)o2)c1)c1ccccc1F [Compound 130]	57%	50			
Cc1c(C(=O)Nc2cc(-c3nnc(-c4ccco4)o3)ccc2F)cccc1[N+](=O)[O-] [Compound 332]		30			
O=C(Nc1cccc(-c2nnc(-c3ccoc3)o2)c1)c1ccccc1F [Compound 20, 2-fluoro-N-(3-(5-(furan-3-yl)-1,3,4-oxadiazol-2-yl)phenyl)benzamide]		13			
O=C(Nc1cccc(-c2nnc(-c3ccc(Cl)o3)o2)n1)c1ccccc1F [Compound 82]		23	3		
